Where a name gives a salt, the structure may show the parent alone. Read-outs that look alike come from different tables or passages of the source.

Common to all, as to assay type: cell-based
Test [1] deals with T1, BaF3 (EGFR/D770insSVD) (Homo sapiens, UniProt P00533, DUP768-770, cells depend on it).
T1 construct: Test 13 IC50 (nM); other: BaF3 (EGFR/D770insSVD), 72 hours, Cell Titer-Glo
Nature of the test: Test 13: EGFR exon 20 inserted D770insSVD cell proliferation test. To be noted: BaF3 (EGFR/D770insSVD), 72 hours, Cell Titer-Glo, read-out: Test 13 IC50. On the procedure:
Test 13: EGFR Exon 20 Inserted D770insSVD Cell Proliferation Test
(§1) The number of viable cells in the culture was measured according to the protocol described in Promega's Cell Titer-Glo Luminescent cell Viability Assay (Promega catalog number #G7570). 90 μl of cells (3,000 cells/well) were cultured in growth medium in a Corning black transparent bottom 96-well plate, and cultured in a 5% CO2 humidified incubator at 37° C. overnight. The compound serially diluted in 100% DMSO was added to the cells using a pipette, and the cells were incubated for another 72 hours. 100 μl of the mixed Cell Titer-Glo reagent was added to the cells in the 96-well culture plate to lyse the cells and mix gently. Subsequently, the […] was detected on the Envision microplate detector to obtain the data of each compound. Finally, the data was input into a suitable software package (such as Prism) for curve fitting analysis.
On the technique in general: In ATP-based viability assays light output follows the ATP content of the culture.

In test [2] the target is BaF3 (EGFR/A763insFQEA) (Homo sapiens, UniProt P00533, INS763FQEA, cells depend on it). The test is described as follows: Test 14: EGFR exon 20 inserted A763insFQEA cell proliferation test. The note with it: 72 hours, Cell Titer-Glo, read-out: Test 14 IC50. On the procedure:
Test 14: EGFR Exon 20 Inserted A763insFQEA Cell Proliferation Test
as §1

Test [3] deals with BaF3 (EGFR/V769insASV) (Homo sapiens, UniProt P00533, DUP767-769, cells depend on it). Nature of the test: Test 15: EGFR exon 20 inserted V769insASV cell proliferation test. The note with it: 72 hours, Cell Titer-Glo, read-out: Test 15 IC50. On the procedure:
Test 15: EGFR Exon 20 Inserted V769insASV Cell Proliferation Test
as §1, with “(3000” for “(3,000”

The subject of test [4] is NCI-H1975 (EGFR L858R/T790M double mutant). Nature of the test: Test 1: EGFR L858R/T790M (EGFR double mutant) cell proliferation test. To be noted: Homo sapiens; NCI-H1975 cells, 72 hours, Cell Titer-Glo. On the procedure: Test 1: EGFR L858R/T790M (EGFR Double Mutant) Cell Proliferation Test
The human lung cell line NCI-H1975 (EGFR L858R/T790M double mutant) was obtained from the American Type Culture Collection. NCI-H1975 cells were cultured in RPMI1640 medium containing 10% fetal bovine serum and 2 mM glutamine. The cells were grown at 37° C. in a humidified incubator with 5% CO2.
as §1, with “(8,000” for “(3,000”

BaF3 (EGFR/V769insASV), sequence (P00533 with tags, fused parts or gaps DUP767-769): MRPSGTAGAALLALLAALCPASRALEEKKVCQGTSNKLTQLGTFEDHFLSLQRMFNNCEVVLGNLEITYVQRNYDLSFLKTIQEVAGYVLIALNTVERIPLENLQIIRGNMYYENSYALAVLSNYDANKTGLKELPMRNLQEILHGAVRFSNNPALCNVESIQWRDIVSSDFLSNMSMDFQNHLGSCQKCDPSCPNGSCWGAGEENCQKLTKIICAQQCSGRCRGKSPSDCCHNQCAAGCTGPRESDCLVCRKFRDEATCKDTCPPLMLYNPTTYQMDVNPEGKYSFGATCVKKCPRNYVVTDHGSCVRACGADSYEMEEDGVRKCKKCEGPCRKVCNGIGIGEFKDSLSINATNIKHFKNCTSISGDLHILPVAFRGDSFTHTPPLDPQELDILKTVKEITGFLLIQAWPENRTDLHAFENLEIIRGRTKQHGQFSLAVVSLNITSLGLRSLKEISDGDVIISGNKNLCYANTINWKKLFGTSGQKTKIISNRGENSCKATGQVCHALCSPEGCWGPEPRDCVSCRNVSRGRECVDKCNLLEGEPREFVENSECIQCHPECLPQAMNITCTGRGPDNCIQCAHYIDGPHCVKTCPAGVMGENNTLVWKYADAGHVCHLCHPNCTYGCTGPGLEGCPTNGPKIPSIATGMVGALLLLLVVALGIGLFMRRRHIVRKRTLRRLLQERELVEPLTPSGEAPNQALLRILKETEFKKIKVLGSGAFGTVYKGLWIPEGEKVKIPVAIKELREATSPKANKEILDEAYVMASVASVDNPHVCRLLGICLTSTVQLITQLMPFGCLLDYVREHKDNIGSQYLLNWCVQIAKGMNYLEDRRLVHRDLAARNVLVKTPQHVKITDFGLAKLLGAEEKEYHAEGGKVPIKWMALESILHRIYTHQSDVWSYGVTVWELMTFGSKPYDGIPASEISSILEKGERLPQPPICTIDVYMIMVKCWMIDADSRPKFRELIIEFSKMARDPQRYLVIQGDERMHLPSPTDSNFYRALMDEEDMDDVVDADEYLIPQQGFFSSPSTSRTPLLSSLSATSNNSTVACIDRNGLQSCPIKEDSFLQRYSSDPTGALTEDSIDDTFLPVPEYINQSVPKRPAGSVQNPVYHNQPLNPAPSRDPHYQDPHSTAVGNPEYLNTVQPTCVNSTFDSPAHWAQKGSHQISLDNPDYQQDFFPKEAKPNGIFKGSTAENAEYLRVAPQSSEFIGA
BaF3 (EGFR/A763insFQEA), sequence (P00533 with tags, fused parts or gaps INS763FQEA): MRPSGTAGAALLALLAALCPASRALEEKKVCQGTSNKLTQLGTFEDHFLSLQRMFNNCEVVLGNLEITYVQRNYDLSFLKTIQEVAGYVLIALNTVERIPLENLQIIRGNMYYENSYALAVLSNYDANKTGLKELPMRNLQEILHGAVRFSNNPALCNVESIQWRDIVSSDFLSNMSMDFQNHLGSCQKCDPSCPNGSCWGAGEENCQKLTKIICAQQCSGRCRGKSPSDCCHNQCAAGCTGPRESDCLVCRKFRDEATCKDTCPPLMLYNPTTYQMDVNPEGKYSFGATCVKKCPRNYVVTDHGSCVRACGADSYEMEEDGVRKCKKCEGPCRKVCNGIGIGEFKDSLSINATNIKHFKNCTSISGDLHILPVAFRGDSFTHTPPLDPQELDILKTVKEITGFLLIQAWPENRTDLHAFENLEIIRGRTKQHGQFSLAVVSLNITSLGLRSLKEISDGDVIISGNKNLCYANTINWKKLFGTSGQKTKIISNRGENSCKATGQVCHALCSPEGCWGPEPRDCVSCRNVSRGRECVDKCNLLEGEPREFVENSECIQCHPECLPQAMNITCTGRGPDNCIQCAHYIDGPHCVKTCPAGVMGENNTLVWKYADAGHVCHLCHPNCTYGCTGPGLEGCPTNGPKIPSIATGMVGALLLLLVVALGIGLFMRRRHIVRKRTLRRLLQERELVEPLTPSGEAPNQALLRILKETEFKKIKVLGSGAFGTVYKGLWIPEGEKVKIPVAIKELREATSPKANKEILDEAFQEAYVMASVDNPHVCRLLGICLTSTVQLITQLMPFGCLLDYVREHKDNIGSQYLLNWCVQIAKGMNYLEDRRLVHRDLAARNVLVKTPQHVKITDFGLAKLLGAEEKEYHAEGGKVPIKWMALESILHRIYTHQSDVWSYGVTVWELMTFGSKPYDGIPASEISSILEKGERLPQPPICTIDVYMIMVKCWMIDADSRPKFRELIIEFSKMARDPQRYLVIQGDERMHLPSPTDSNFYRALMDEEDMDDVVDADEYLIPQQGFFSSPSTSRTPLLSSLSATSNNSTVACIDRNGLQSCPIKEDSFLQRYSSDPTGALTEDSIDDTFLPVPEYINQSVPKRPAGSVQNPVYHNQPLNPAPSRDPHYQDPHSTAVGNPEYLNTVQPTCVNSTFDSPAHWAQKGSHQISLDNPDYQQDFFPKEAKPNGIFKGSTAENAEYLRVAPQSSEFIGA
T1 sequence (P00533 with tags, fused parts or gaps DUP768-770): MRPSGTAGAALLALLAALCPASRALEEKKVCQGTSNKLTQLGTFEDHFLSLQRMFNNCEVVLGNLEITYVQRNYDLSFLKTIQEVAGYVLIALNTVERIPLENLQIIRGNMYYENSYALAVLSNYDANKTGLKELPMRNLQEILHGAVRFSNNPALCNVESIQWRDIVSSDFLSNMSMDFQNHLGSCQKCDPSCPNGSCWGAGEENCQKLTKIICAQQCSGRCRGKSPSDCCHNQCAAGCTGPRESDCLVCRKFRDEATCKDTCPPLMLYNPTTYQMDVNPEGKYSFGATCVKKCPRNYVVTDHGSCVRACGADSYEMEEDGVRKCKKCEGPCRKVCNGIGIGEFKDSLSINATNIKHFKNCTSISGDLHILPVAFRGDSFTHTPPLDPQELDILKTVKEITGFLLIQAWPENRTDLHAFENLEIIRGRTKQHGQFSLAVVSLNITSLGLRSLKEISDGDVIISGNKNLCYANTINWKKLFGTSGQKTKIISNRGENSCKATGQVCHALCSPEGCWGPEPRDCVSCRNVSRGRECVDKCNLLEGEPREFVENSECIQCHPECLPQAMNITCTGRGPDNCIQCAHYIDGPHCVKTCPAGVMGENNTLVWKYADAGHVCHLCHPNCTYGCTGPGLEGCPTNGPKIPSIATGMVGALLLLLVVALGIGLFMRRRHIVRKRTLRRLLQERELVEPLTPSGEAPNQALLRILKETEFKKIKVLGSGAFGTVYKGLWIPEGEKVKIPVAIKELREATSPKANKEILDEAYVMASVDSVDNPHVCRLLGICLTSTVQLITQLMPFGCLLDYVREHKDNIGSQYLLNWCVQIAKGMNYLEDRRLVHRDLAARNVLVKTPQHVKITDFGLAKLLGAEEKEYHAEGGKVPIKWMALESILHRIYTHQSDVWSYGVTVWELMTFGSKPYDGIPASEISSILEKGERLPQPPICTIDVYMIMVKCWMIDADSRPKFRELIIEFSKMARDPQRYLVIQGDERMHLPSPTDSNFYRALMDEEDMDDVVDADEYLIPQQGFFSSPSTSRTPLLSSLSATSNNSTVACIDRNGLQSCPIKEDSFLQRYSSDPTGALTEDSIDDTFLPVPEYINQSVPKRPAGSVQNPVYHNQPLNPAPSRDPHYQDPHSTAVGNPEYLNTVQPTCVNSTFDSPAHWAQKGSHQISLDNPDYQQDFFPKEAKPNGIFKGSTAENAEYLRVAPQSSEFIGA

In the case of `C=CC(=O)Nc1cc(Nc2ncnc(-c3cnc4c(C)cccn34)n2)c(OC)cc1N(C)CCN(C)C` [Compound 19, N-(2-((2-(dimethylamino)ethyl)(methyl)amino)-4-methoxy-5-((4-(8-methylimidazole[1,2-a]pyridin-3-yl)-1,3,5-triazin-2-yl)amino)phenyl)acrylamide], the GI50 in test [1] was found to be 144 nM; in test [2], 42.6 nM; in test [3] it was 148 nM.
The corresponding values for `C=CC(=O)Nc1cc(Nc2nccc(-c3cn(C)c4ccc(F)cc34)n2)c(OC(F)F)cc1N(C)CCNC` [Compound 20, N-(4-(difluoromethoxy)-5-((4-(5-fluoro-1-methyl-1H-indol-3-yl)pyrimidin-2-yl)amino)-2-(methyl(2-(methylamino)ethyl)amino)phenyl)acrylamide] are 89.2 nM, 75.1 nM and 155 nM.
The corresponding values for `C=CC(=O)Nc1cc(Nc2nccc(-c3cn(C)c4ccc(F)cc34)n2)c(OC)cc1N(C)CCN(C)C` [Compound 21, N-(2-((2-(dimethylamino)ethyl)(methyl)amino)-5-((4-(5-fluoro-1-methyl-1H-indol-3-yl)pyrimidin-2-yl)amino)-4-methoxyphenyl)acrylamide] are 81 nM, 50.1 nM and 98.6 nM.
The corresponding values for `C=CC(=O)Nc1cc(Nc2nccc(-c3cn(C)c4ccc(F)cc34)n2)c(OCC)cc1N(C)CCN(C)C` [Compound 22, N-(2-((2-(dimethylamino)ethyl)(methyl)amino)-4-ethoxy-5-((4-(5-fluoro-1-methyl-1H-indol-3-yl)pyrimidin-2-yl)amino)phenyl)acrylamide] are 248 nM, 193 nM and 365 nM.
On to `C=CC(=O)Nc1cc(Nc2nccc(-c3cn(C)c4ccccc34)n2)c(OCC)cc1N(C)CCN(C)C` [Compound 23, N-(2-((2-(dimethylamino)ethyl)(methyl)amino)-4-ethoxy-5-((4-(1-methyl-1H-indole-3-yl)pyrimidin-2-yl)amino)phenyl)acrylamide], for which the results for the GI50 in test [1], in test [2] and in test [3] were 219 nM, 122 nM and 264 nM, respectively.
For the compound `C=CC(=O)Nc1cc(Nc2nccc(-c3cn(C)c4ccccc34)n2)c(OCC)cc1N(C)CCNC` [Compound 24, N-(4-ethoxy-2-(methyl(2-(methylamino)ethyl)amino)-5-((4-(1-methyl-1H-indol-3-yl)pyrimidine-2-yl)amino)phenyl)acrylamide], the GI50 amounted to 207 nM in test [1], 213 nM in test [2] and 266 nM in test [3].
With `C=CC(=O)Nc1cc(Nc2nccc(-c3cn(C)c4ccc(F)cc34)n2)c(OC)cc1N(C)CCNC` [Compound 25, N-(5-((4-(5-fluoro-1-methyl-1H-indol-3-yl)pyrimidin-2-yl)amino)-4-methoxy-2-(methyl(2-(methylamino)ethyl)amino)phenyl)acrylamide], the GI50 in test [1] came to 78.9 nM; in test [2], 51 nM; in test [3], 104 nM.
The corresponding values for `C=CC(=O)Nc1cc(Nc2nccc(-c3cn(C)c4ccccc34)n2)c(OC(F)F)cc1N(C)CCNC` [Compound 26, N-(4-(difluoromethoxy)-2-(methyl(2-(methylamino)ethyl)amino)-5-((4-(1-methyl-1H-indole-3-yl)pyrimidin-2-yl)amino)phenyl)acrylamide] are 142 nM, 38.3 nM and 126 nM.
For `C=CC(=O)Nc1cc(Nc2nccc(-c3cn(C)c4ccc(F)cc34)n2)c(OCC)cc1N(C)CCNC` [Compound 27, N-(4-ethoxy-5-((4-(5-fluoro-1-methyl-1H-indol-3-yl)pyrimidin-2-yl)amino)-2-(methyl(2-(methylamino)ethyl)amino)phenyl)acrylamide], in that order: 195 nM, 177 nM and 319 nM.
Regarding `C=CC(=O)Nc1cc(Nc2nccc(-c3cn(C4CC4)c4ccccc34)n2)c(OC)cc1N(C)CCN(C)C` [Compound 28, N-(5-((4-(1-cyclopropyl-1H-indole)pyrimidin-2-yl)-2-((2-(dimethylamino)ethyl(methyl)amine)-4-methoxyphenyl)acrylamide hydrochloride], the GI50 in test [1] (hydrochloride) is 237 nM; in test [2] (hydrochloride), 66.4 nM; in test [3] (hydrochloride), 176 nM.
In the case of `C=CC(=O)Nc1cc(Nc2nccc(-c3cn(C4CC4)c4ccccc34)n2)c(OC)cc1N(C)CCN(C)C` [Compound 29, N-(5-((4-(1-cyclopropyl-1H-indole)pyrimidin-2-yl)-2-((2-(dimethylamino)ethyl(methyl)amine)-4-methoxyphenyl)acrylamide methanesulfonate], the GI50 in test [1] was 240 nM; in test [2], 60.7 nM; in test [3], 174 nM.
For `C=CC(=O)Nc1cc(Nc2nccc(-c3cn(C4CC4)c4ccccc34)n2)c(OC)cc1N(C)CCN(C)C` [Compound 30], in that order: 239 nM, 63.6 nM and 177 nM.
With `C=CC(=O)Nc1cc(Nc2nccc(-n3cc(CN(C)C)c(-c4ccccc4)n3)n2)c(OC)cc1N1CCOCC1` [Compound 34, N-(5-((4-(4-((dimethylamine)methyl)-3-phenyl-1H-pyrazol-1-yl)pyrimidin-2-yl)amine)-4-methoxy-2-morpholinylphenyl)acrylamide], the results for the GI50 in test [1], in test [2] and in test [3] were 598 nM, 53.8 nM and 406 nM, respectively.
As for `C=CC(=O)Nc1cccc(Oc2nc(Nc3ccc(N4CCN(C)CC4)c(F)c3)nc3[nH]ccc23)c1` [Compound 35, N-(3-((2-((3-fluoro-4-(4-methylpiperazin-1-yl)phenyl)amine)-7H-pyrazole[2,3-d]pyrimidine-4-yl)oxo)phenyl)acrylamide], the GI50 in test [1] was determined as 146 nM; in test [2] it was 106 nM; in test [3], 105 nM.
On to `C=CC(=O)Nc1cccc(Oc2nc(Nc3ccc(N4CCN(C)CC4)cc3)nc3ccsc23)c1` [Compound 36, N-(3-((2-((4-(4-methylpiperazin-1-yl)phenyl)amine)thieno[3,2-d]pyrimidin-4-yl)oxo)phenyl)acrylamide], for which the GI50 in test [1] is 454 nM; in test [2], 170 nM; in test [3] it was 325 nM.
In the case of `COc1cc2ncnc(Nc3cccc(Cl)c3F)c2cc1OC(=O)N1CCN(C)C[C@H]1C` [Compound 38], the GI50 was over 3330 nM in test [1], 71.2 nM in test [2] and over 3330 nM in test [3].
In the case of `Cc1cc(C(=O)Nc2nc3cccc(Cl)c3n2[C@@H]2CCCCN(C(=O)/C=C/CN(C)C)C2)ccn1` [Compound 39, (R,E)-N-(7-chloro-1-(1-(4-(dimethylamine)-2-butenoyl)azepane-3-yl)-1H-benzo[d]imidazol-2-yl)-2-methylisonicotinamide], the GI50 in test [1] was determined as 963 nM; in test [2], 309 nM; in test [3], 455 nM.
A word on the IC50: it is the concentration that gives 50% inhibition. Read a high IC50 as a need for much substance. `COc1cc(N2CC[C@@H]2CN(C)C)c(NC(=O)/C=C/CN(C)C)cc1Nc1ncnc(-n2ccc3cnccc32)n1` [Example 2, (R,E)-N-(5-((4-(1H-pyrrole[3,2-c]pyridin-1-yl)-1,3,5-triazin-2-yl)amino)-2-(2-((dimethylamino)methyl)azetidine-1-yl)-4-methoxyphenyl)-4-(dimethylamino)butene-2-amide] came in with an IC50 in test [4] of 130 nM.

The record behind these values is patent publication US12258344B2, “Azaaromatic amide derivatives for the treatment of cancer” (SHENZHEN FORWARD PHARMACEUTICALS CO., LTD., priority 2019, dated 2025).
